Target: T1, GSG2 (Haspin) (Homo sapiens, UniProt Q8TF76)
T1 construct: purchased Thermo Fisher Scientific (Life Technologies) SelectScreen
Assay: SelectScreen Adapta
Format: biochemical
Description: The in vitro kinase selectivity of NU5455 was determined using the SelectScreen Broad Assay Panel (Thermo Fisher Scientific) involving activity and binding assays (Supplemental Table 1). […] Class IA PI3Ks were measured using the p85α subunit.
Kinase [ATP] % Assay Kinase [ATP] % Assay Kinase [ATP] % Assay Kinase [ATP] % Assay
DNA-PK Km app 98.3 Z LATS2 n/a 4.7 L KIT D820E n/a 1.3 L GSK3B (GSK3 beta) Km app -2.5 Z
PIK3C3 (hVPS34) Km app 85.9 A PRKCZ (PKC zeta) Km app 4.7 Z GRK1 n/a 1.3 L BMPR2 n/a -2.5 L
PIK3C2B (PI3K-C2 beta) 10 28.9 A FGFR1 Km app 4.7 Z BRSK2 n/a 1.2 L CDC42 BPB (MRCKB) Km app -2.5 Z
SNF1LK2 Km app 26.6 Z MINK1 Km app 4.6 Z NUAK1 (ARK5) Km app 1.2 A AMPK (A2/B2/G2) n/a -2.6 L
HCK Km app 18.0 Z CSF1R (FMS) Km app 4.3 Z CDK9/cyclin K n/a 1.0 L PRKG1 Km app -2.7 Z
NEK2 Km app 17.8 Z CSNK1G3 (CK1 gamma 3) Km app 4.2 Z NUAK2 n/a 1.0 L KIT T670E n/a -2.8 L
ALK Km app 17.3 Z STK32C (YANK3) n/a 4.2 L CDK2/cyclin O n/a 0.9 L ERBB4 (HER4) Km app -2.8 Z
FGFR3 K650M n/a 16.5 L STK22D (TSSK1) Km app 4.2 Z CAMKK2 (CaMKK beta) n/a 0.9 L PLK4 n/a -2.8 L
SIK3 n/a 16.1 L TAOK3 (JIK) n/a 4.2 L FGFR3 Km app 0.9 Z GRK7 Km app -3.0 Z
LYN A Km app 15.2 Z RPS6KA4 (MSK2) Km app 4.2 Z ULK2 n/a 0.9 L MAPKAPK2 Km app -3.1 Z
BMPR1B (ALK6) n/a 14.5 L PTK2B (FAK2) Km app 4.2 Z KIT D816V n/a 0.9 L FGFR4 Km app -3.1 Z
INSRR (IRR) Km app 14.1 Z CLK2 Km app 4.1 Z CAMK1 (CaMK1) 10 0.8 A CASK n/a -3.1 L
PLK2 Km app 14.1 Z STK24 (MST3) Km app 4.1 Z PTK6 (Brk) Km app 0.7 Z GRK5 Km app -3.2 Z
PRKACA (PKA) Km app 14.0 Z CAMK1D (CaMKI delta) Km app 4.1 Z CAMK2B (CaMKII beta) Km app 0.7 Z EGFR (ErbB1) T790M Km app -3.3 Z
EIF2AK2 (PKR) n/a 13.3 L INSR Km app 4.1 Z ACVR1 (ALK2) n/a 0.7 L PAK4 Km app -3.3 Z
PRKX Km app 12.5 Z IRAK1 Km app 4.0 A ABL1 H396P n/a 0.6 L DAPK3 (ZIPK) Km app -3.4 Z
FGR Km app 12.1 Z SRC N1 Km app 3.9 Z MERTK (cMER) A708S n/a 0.6 L RET M918T n/a -3.5 L
CLK1 Km app 11.7 Z SRPK2 Km app 3.9 Z MAPKAPK5 (PRAK) Km app 0.6 Z PRKCQ (PKC theta) Km app -3.7 Z
MARK3 Km app 11.4 Z RPS6KA6 (RSK4) Km app 3.8 Z AKT1 (PKB alpha) Km app 0.5 Z CAMKK1 (CAMKKA) n/a -3.8 L
PDGFRB (PDGFR beta) Km app 11.0 Z GRK6 Km app 3.7 Z NTRK3 (TRKC) Km app 0.4 Z FLT3 D835Y Km app -3.9 Z
PRKCN (PKD3) Km app 10.7 Z PKN1 (PRK1) Km app 3.6 Z ZAP70 Km app 0.3 Z ROCK2 Km app -4.1 Z
STK16 (PKL12) n/a 10.5 L MAP3K8 (COT) 100 3.5 Z CSNK1A1 (CK1 alpha 1) Km app 0.3 Z CHUK (IKK alpha) Km app -4.2 A
FES (FPS) Km app 10.4 Z FLT4 (VEGFR3) Km app 3.5 Z MYLK (MLCK) n/a 0.2 L AXL Km app -4.2 Z
ABL1 Km app 10.4 Z GRK4 Km app 3.5 Z MKNK2 (MNK2) n/a 0.2 L PIM2 Km app -4.3 Z
MUSK Km app 10.3 Z FRK (PTK5) Km app 3.4 Z AMPK (A1/B1/G3) n/a 0.2 L PAK1 Km app -4.4 Z
MAPK1 (ERK2) Km app 10.1 Z FYN A n/a 3.3 L MAP3K2 (MEKK2) n/a 0.1 L BMPR1A (ALK3) n/a -4.4 L
BRAF 100 9.9 Z CDK1/cyclin A2 n/a 3.3 L CDK8/cyclin C n/a 0.1 L STK4 (MST1) Km app -4.4 Z
IGF1R Km app 9.7 Z KIT V559D T670I n/a 3.1 L MARK2 Km app 0.1 Z PRKCH (PKC eta) Km app -4.6 Z
MAPK14 (p38 alpha) Km app 9.7 Z SPHK2 10 3.1 A ICK n/a 0.0 L SGKL (SGK3) Km app -4.6 Z
LCK Km app 9.6 Z FGFR3 G697C n/a 3.1 L FGFR2 Km app 0.0 Z PI4KB (PI4K beta) Km app -4.7 A
MAPK11 (p38 beta) Km app 9.5 Z RIPK2 n/a 3.1 L AKT2 (PKB beta) Km app 0.0 Z PRKCE (PKC epsilon) Km app -4.9 Z
SRC Km app 9.5 Z PAK6 Km app 3.0 Z EPHB2 Km app -0.1 Z PHKG1 Km app -5.0 Z
CHEK1 (CHK1) Km app 9.3 Z LYN B Km app 3.0 Z TGFBR2 n/a -0.1 L PDGFRA D842V Km app -5.0 Z
CAMK2D (CaMKII delta) Km app 9.3 Z DAPK2 n/a 2.9 L TEK (Tie2) Km app -0.1 Z PRKG2 (PKG2) Km app -5.1 Z
PLK1 Km app 9.2 Z EPHA4 Km app 2.9 Z AURKA (Aurora A) Km app -0.1 Z TYRO3 (RSE) Km app -5.1 Z
RET Y791F Km app 9.2 Z PIK3CG (p110 gamma) Km app 2.9 A KIT D816H n/a -0.2 L TAOK2 (TAO1) Km app -5.1 Z
FLT3 Km app 9.1 Z HIPK1 (Myak) Km app 2.8 Z KIT N822K n/a -0.2 L EPHB4 Km app -5.3 Z
MAPK10 (JNK3) 100 9.0 Z ADRBK2 (GRK3) Km app 2.8 Z PRKACG (PRKAC gamma) n/a -0.2 L AURKC (Aurora C) Km app -5.4 Z
CSNK2A2 (CK2 alpha 2) Km app 8.7 Z STK17B (DRAK2) n/a 2.7 L TEK (TIE2) Y1108F n/a -0.3 L JAK1 Km app -5.7 Z […]

T1 sequence (Q8TF76 whole entry): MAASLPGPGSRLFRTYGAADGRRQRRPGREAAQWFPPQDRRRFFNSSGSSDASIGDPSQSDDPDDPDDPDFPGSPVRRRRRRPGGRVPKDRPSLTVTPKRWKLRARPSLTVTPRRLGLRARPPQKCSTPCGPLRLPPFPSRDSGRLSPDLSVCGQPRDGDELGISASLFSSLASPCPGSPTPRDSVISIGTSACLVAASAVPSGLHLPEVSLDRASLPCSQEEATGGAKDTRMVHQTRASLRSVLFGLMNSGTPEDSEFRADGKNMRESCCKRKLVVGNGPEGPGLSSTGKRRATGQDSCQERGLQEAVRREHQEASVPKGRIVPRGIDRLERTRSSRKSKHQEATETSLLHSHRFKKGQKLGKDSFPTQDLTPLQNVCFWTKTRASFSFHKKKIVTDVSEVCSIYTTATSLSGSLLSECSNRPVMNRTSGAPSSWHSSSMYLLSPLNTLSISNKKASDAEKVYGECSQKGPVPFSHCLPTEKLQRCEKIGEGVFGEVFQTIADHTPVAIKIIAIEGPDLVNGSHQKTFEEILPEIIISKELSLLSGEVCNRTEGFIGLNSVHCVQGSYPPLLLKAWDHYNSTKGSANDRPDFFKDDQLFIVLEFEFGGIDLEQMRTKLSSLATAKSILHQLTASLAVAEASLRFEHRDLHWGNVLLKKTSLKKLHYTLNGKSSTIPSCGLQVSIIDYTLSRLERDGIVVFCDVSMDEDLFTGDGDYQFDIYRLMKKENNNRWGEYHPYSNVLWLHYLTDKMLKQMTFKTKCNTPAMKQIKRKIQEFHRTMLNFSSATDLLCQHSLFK

SMILES: CN(C(=O)CN1CCOCC1)c1ccc2sc3c(-c4cccc5c(=O)cc(N6CC7CCC(C6)O7)oc45)cccc3c2c1 [NU5455]
- inhibition at 1 µM: -15%
